Data set [1] is described as follows: Storage stability of aqueous formulation CE1, PGR content after 1 year. Type of data set: physicochemical. Conditions: in aqueous formulation CE1, 1 year of storage. Here is the method:
Comparative Example 1: A combination of three PGRs (kinetin, GA3, and IBA) were dissolved in water along with a defoamer and a phosphate ester surfactant at the ratios specified in Table CE1: […] This is typical behavior for an aqueous system containing these PGRs.

Data set [2] can be described thus: Accelerated aging test of formulation E1, 54° C. for 2 weeks. It is filed as physicochemical. The note with it: for 2-Weeks at 54° C.: in formulation E1, after 2 weeks at 54° C.; for Initial Assay: in formulation E1, before accelerated aging; for Percent Change: in formulation E1, initial vs 2 weeks at 54° C. Here is the method:
Example 1 (E1): A combination of three PGRs (kinetin, GA3, and IBA) were dissolved in a ternary solvent system containing a high dielectric solvent (DMSO), a medium dielectric solvent (HALLCOMID® M-8-10), and a low dielectric solvent (methyl soyate) with surfactants (ETHOX® CO-40 and ETHFAC® 140) at the ratios specified in Table E1:
The formulation was tested in an accelerated aging test by storing the sample at 54° C. for 2 weeks and measuring the content of the PGRs before and after testing. This was to follow the EPA's Office of Pesticide Programs guidelines for product chemistry and stability.
Table 2 illustrates initial formulation stability and stability at two-weeks as a percentage change in the amount (vol. %) of each PGR: […]

Data set [3] is described as follows: Solubility of PGRs in solvents. The source says: In some examples, the ratios of the plurality of non-aqueous solvents may be selected based on a relative amount and type of PGR compound selected for the agrochemical formulation. For example, an amount (e.g., vol. %) of a high dielectric solvent may be selected to fully dissolve selected amounts (e.g., vol. %) of one or more PGRs of the plurality of selected PGRs, which may only be soluble, or at least more soluble in, the high dielectric solvent. Additionally, an amount of (e.g., vol. %) of a medium dielectric solvent and/or a low dielectric solvent may be selected for similar reasons.

For data set [4] the following is noted: cited from earlier work.

The values below come from US20250241297A1, “TERNARY SOLVENT SYSTEMS FOR STABLE PLANT GROWTH REGULATOR FORMULATIONS” (priority 2024, published 2025).

Where two headings read alike, the source gives them in different places.

Consider `C=C1C[C@]23C[C@@]1(O)CC[C@H]2[C@@]12C=C[C@H](O)[C@@](C)(C(=O)O1)[C@@H]2[C@@H]3C(=O)O` [GA3, (3S,3aS,4S,4aS,7S,9aR,9bR,12S)-7,12-Dihydroxy-3-methyl-6-methylene-2-oxoperhydro-4a,7-methano-9b,3-propenoazuleno[1,2-b]furan-4-carboxylic acid], for which, in data set [1], the “detected level of active ingredient after 1 year of storage” value (from here on “detected level of active ingredient”) worked out at 0.0005% and the “loss of active ingredient after 1 year of storage” value (“loss of active ingredient” below) stood at 91%. Also, in data set [2], the “2-Weeks at 54° C.” value amounted to 0.055%, the “Initial Assay” value is on record as 0.058% and the “Percent Change” value is 5.17%. Also, the “solubility in DMSO” value in data set [3] (DMSO) is 1.5%. Further, in data set [3] (vegetable oil or modified vegetable oil solvents), the “solubility in vegetable oil or modified vegetable oil solvents” value is “virtually insoluble”.
For `O=C(O)CCCc1c[nH]c2ccccc12` [IBA, indole-3-butyric acid], in data set [1], the “detected level of active ingredient” value is “not detected” and the “loss of active ingredient” value was 100%. Further, in data set [2], the “2-Weeks at 54° C.” value came out at 0.047%, the “Initial Assay” value amounted to 0.047% and the “Percent Change” value was 0.00%. Moreover, in data set [4], the “chemical breakdown in water” value is reported as “facilitates the chemical breakdown”.
Consider `c1coc(CNc2ncnc3[nH]cnc23)c1` [kinetin], for which, in data set [1], the “detected level of active ingredient” value amounted to 0.0015% and the “loss of active ingredient” value stood at 83%. Also, in data set [2], the “2-Weeks at 54° C.” value was 0.090%, the “Initial Assay” value turned out to be 0.099% and the “Percent Change” value is recorded as 9.09%. Further, in data set [3], the “solubility in DMSO” value worked out at 3.3% and the “solubility in vegetable oil or modified vegetable oil solvents” value is on record as “virtually insoluble”.
